Reference: ChEMBL document CHEMBL1201861, “Genomics of Drug Sensitity in Cancer screening data, Wellcome Trust Sanger Institute”

What was measured:
Experiment in all cases: cells
Conditions in all cases: Homo sapiens
[1] = system: COLO-829; assay type: functional, cell-based
Description: SANGER: Inhibition of human COLO-829 cell growth in a cell viability assay.

[2] = system: CP66-MEL; assay type: functional, cell-based;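 further: growth inhibition of CP66-MEL cells determined in a cell viability assay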
Description: SANGER: Inhibition of human CP66-MEL cell growth in a cell viability assay.

[3] = system: CW-2; assay type: functional, cell-based;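 further: growth inhibition of CW-2 cells, read out by a cell viability assay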
Description: SANGER: Inhibition of human CW-2 cell growth in a cell viability assay.

[4] = system: DEL; assay type: functional, cell-based;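 further: growth inhibition of the human DEL cell line, read out with a cell viability assay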
Description: SANGER: Inhibition of human DEL cell growth in a cell viability assay.

[5] = system: DJM-1; assay type: functional, cell-based;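 further: growth inhibition of human DJM-1 cells, read out by a cell viability assay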
Description: SANGER: Inhibition of human DJM-1 cell growth in a cell viability assay.

[6] = system: DoTc2-4510; assay type: functional, cell-based
[7] = system: EM-2; assay type: functional, cell-based;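 further: growth inhibition of EM-2 cells, read out with a cell viability assay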
Description: SANGER: Inhibition of human EM-2 cell growth in a cell viability assay.

[8] = system: ES4; assay type: functional, cell-based;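 further: growth inhibition of human ES4 cells, read out by a cell viability assay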
Description: SANGER: Inhibition of human ES4 cell growth in a cell viability assay.

[9] = system: EW-18; assay type: functional, cell-based;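 further: growth inhibition of EW-18 cells, read out by a cell viability assay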
Description: SANGER: Inhibition of human EW-18 cell growth in a cell viability assay.

[10] = system: GB-1; assay type: functional, cell-based;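 further: growth of GB-1 cells judged by a viability assay, IC50 marks the concentration inhibiting growth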
Description: SANGER: Inhibition of human GB-1 cell growth in a cell viability assay.

[11] = system: GI-ME-N; assay type: functional, cell-based;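 further: growth inhibition of human GI-ME-N cells, read out with a cell viability assay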
Description: SANGER: Inhibition of human GI-ME-N cell growth in a cell viability assay.

[12] = system: GT3TKB; assay type: functional, cell-based;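 further: growth inhibition of the cell line, read out with a cell viability assay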
Description: SANGER: Inhibition of human GT3TKB cell growth in a cell viability assay.

[13] = system: HH; assay type: functional, cell-based
Description: SANGER: Inhibition of human HH cell growth in a cell viability assay.

[14] = system: HL-60; assay type: functional, cell-based;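 further: growth inhibition of human HL-60 cells, read out with a cell viability assay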
Description: SANGER: Inhibition of human HL-60 cell growth in a cell viability assay.

[15] = system: IGROV-1; assay type: functional, cell-based;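 further: reduction of IGROV-1 cell growth, read out with a viability assay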
Description: SANGER: Inhibition of human IGROV-1 cell growth in a cell viability assay.

[16] = system: IST-SL1; assay type: functional, cell-based;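 further: growth inhibition of human IST-SL1 cells, read out with a cell viability assay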
Description: SANGER: Inhibition of human IST-SL1 cell growth in a cell viability assay.

[17] = system: JAR; assay type: functional, cell-based;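 further: growth inhibition of human JAR cells determined with a cell viability assay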
Description: SANGER: Inhibition of human JAR cell growth in a cell viability assay.

[18] = system: KM12; assay type: functional, cell-based;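 further: KM12 cell growth inhibition, read out with a cell viability assay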
Description: SANGER: Inhibition of human KM12 cell growth in a cell viability assay.

[19] = system: KY821; assay type: functional, cell-based;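 further: growth inhibition of human KY821 cells, read out by a cell viability assay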
Description: SANGER: Inhibition of human KY821 cell growth in a cell viability assay.

[20] = system: L-363; assay type: functional, cell-based
Description: SANGER: Inhibition of human L-363 cell growth in a cell viability assay.

[21] = system: LB2241-RCC; assay type: functional, cell-based;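 further: cell viability assay measuring how strongly the cultured human renal carcinoma line is prevented from growing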
Description: SANGER: Inhibition of human LB2241-RCC cell growth in a cell viability assay.

[22] = system: LB831-BLC; assay type: functional, cell-based;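 further: growth inhibition of LB831-BLC cells, read out with a cell viability assay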
Description: SANGER: Inhibition of human LB831-BLC cell growth in a cell viability assay.

[23] = system: LS-123; assay type: functional, cell-based
Description: SANGER: Inhibition of human LS-123 cell growth in a cell viability assay.

[24] = system: LS-411N; assay type: functional, cell-based
[25] = system: LU-134-A; assay type: functional, cell-based
Description: SANGER: Inhibition of human LU-134-A cell growth in a cell viability assay.

[26] = system: MEG-01; assay type: functional, cell-based;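 further: growth inhibition of MEG-01 cells, read out by a cell viability assay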
Description: SANGER: Inhibition of human MEG-01 cell growth in a cell viability assay.

[27] = system: MFH-ino; assay type: functional, cell-based;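 further: growth inhibition of human MFH-ino cells, read out by a cell viability assay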
Description: SANGER: Inhibition of human MFH-ino cell growth in a cell viability assay.

[28] = system: MIA PaCa-2; assay type: functional, cell-based;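 further: growth inhibition of MIA PaCa-2 cells, read out with a cell viability assay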
Description: SANGER: Inhibition of human MIA-PaCa-2 cell growth in a cell viability assay.

[29] = system: MKN-45; assay type: functional, cell-based;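 further: growth inhibition of human MKN-45 cells, measured with a cell viability assay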
Description: SANGER: Inhibition of human MKN45 cell growth in a cell viability assay.

[30] = system: MOLT-16; assay type: functional, cell-based;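 further: growth inhibition of human MOLT-16 cells, read out with a cell viability assay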
Description: SANGER: Inhibition of human MOLT-16 cell growth in a cell viability assay.

[31] = system: MOLT-4; assay type: functional, cell-based;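 further: growth inhibition of MOLT-4 cells, determined with a cell viability readout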
Description: SANGER: Inhibition of human MOLT-4 cell growth in a cell viability assay.

[32] = system: MV4-11; assay type: functional, cell-based, MV-4-11;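 further: cell viability readout measuring growth inhibition of human MV-4-11 cells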
Description: SANGER: Inhibition of human MV-4-11 cell growth in a cell viability assay.

[33] = system: MZ2-MEL; assay type: functional, cell-based;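 further: growth inhibition of MZ2-MEL cells read out with a cell viability assay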
Description: SANGER: Inhibition of human MZ2-MEL cell growth in a cell viability assay.

[34] = system: NB13; assay type: functional, cell-based;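 further: cell viability readout measuring growth inhibition of human NB13 cells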
Description: SANGER: Inhibition of human NB13 cell growth in a cell viability assay.

[35] = system: NB69; assay type: functional, cell-based;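 further: growth inhibition of NB69 cells, determined by a cell viability assay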
Description: SANGER: Inhibition of human NB69 cell growth in a cell viability assay.

[36] = system: NCI-H1299; assay type: functional, cell-based;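 further: growth inhibition of human NCI-H1299 cells, read out by a cell viability assay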
Description: SANGER: Inhibition of human NCI-H1299 cell growth in a cell viability assay.

[37] = system: NCI-H1395; assay type: functional, cell-based;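 further: cell viability assay read-out quantifying reduced proliferation of human NCI-H1395 cells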
Description: SANGER: Inhibition of human NCI-H1395 cell growth in a cell viability assay.

[38] = system: NCI-H1581; assay type: functional, cell-based;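 further: cell growth inhibition read out by a viability assay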
Description: SANGER: Inhibition of human NCI-H1581 cell growth in a cell viability assay.

[39] = system: NCI-H1651; assay type: functional, cell-based;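 further: Read-out is a cell viability assay, with IC50 expressing inhibition of NCI-H1651 cell growth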
Description: SANGER: Inhibition of human NCI-H1651 cell growth in a cell viability assay.

[40] = system: NCI-H2126; assay type: functional, cell-based;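 further: growth inhibition of the cancer cell line, determined with a cell viability readout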
Description: SANGER: Inhibition of human NCI-H2126 cell growth in a cell viability assay.

[41] = system: NCI-H526; assay type: functional, cell-based;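 further: growth inhibition of the human NCI-H526 cell line, measured by a cell viability assay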
Description: SANGER: Inhibition of human NCI-H526 cell growth in a cell viability assay.

[42] = system: NCI-H720; assay type: functional, cell-based;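 further: growth inhibition of human NCI-H720 cells determined by a cell viability assay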
Description: SANGER: Inhibition of human NCI-H720 cell growth in a cell viability assay.

[43] = system: NKM-1; assay type: functional, cell-based;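 further: growth inhibition of NKM-1 cells, read out with a cell viability assay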
Description: SANGER: Inhibition of human NKM-1 cell growth in a cell viability assay.

[44] = system: P30-OHK; assay type: functional, cell-based;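 further: growth inhibition of the P30-OHK cell line, read out with a cell viability assay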
Description: SANGER: Inhibition of human P30-OHK cell growth in a cell viability assay.

[45] = system: RPMI-2650; assay type: functional, cell-based
Description: SANGER: Inhibition of human RPMI-2650 cell growth in a cell viability assay.

[46] = system: RS4-11; assay type: functional, cell-based;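 further: growth inhibition of RS4-11 cells, read out by a cell viability assay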
Description: SANGER: Inhibition of human RS4-11 cell growth in a cell viability assay.

[47] = system: RXF 393; assay type: functional, cell-based;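 further: growth inhibition of human RXF 393 cells, read out with a cell viability assay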
Description: SANGER: Inhibition of human RXF393 cell growth in a cell viability assay.

[48] = system: SK-LMS-1; assay type: functional, cell-based;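 further: growth inhibition of human SK-LMS-1 cells, read out with a cell viability assay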
Description: SANGER: Inhibition of human SK-LMS-1 cell growth in a cell viability assay.

[49] = system: SW982; assay type: functional, cell-based;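 further: growth inhibition of SW982 cells, read out with a cell viability assay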
Description: SANGER: Inhibition of human SW982 cell growth in a cell viability assay.

[50] = system: A204; assay type: functional, cell-based;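 further: growth inhibition of human A204 cells, read out with a cell viability assay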
Description: SANGER: Inhibition of human A204 cell growth in a cell viability assay.

[51] = system: A4-Fuk; assay type: functional, cell-based;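 further: growth inhibition of A4-Fuk cells, read out by a cell viability assay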
Description: SANGER: Inhibition of human A4-Fuk cell growth in a cell viability assay.

[52] = system: A-431; assay type: functional, cell-based;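 further: growth inhibition of A-431 cells, determined with a cell viability read-out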
Description: SANGER: Inhibition of human A431 cell growth in a cell viability assay.

[53] = system: ACN; assay type: functional, cell-based;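 further: growth inhibition of the human ACN cell line, read out via cell viability testing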
Description: SANGER: Inhibition of human ACN cell growth in a cell viability assay.

[54] = system: ALL-PO; assay type: functional, cell-based;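 further: growth inhibition of ALL-PO cells, read out by a cell viability assay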
Description: SANGER: Inhibition of human ALL-PO cell growth in a cell viability assay.

[55] = system: BB49-HNC; assay type: functional, cell-based;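 further: cell viability assay read-out, reported as inhibition of BB49-HNC cell growth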
Description: SANGER: Inhibition of human BB49-HNC cell growth in a cell viability assay.

[56] = system: BB65-RCC; assay type: functional, cell-based
Description: SANGER: Inhibition of human BB65-RCC cell growth in a cell viability assay.

[57] = system: BCPAP; assay type: functional, cell-based
Description: SANGER: Inhibition of human BCPAP cell growth in a cell viability assay.

[58] = system: BV-173; assay type: functional, cell-based
Description: SANGER: Inhibition of human BV-173 cell growth in a cell viability assay.

[59] = system: Becker; assay type: functional, cell-based
Description: SANGER: Inhibition of human Becker cell growth in a cell viability assay.

[60] = system: TGBC24TKB; assay type: functional, cell-based
Description: SANGER: Inhibition of human TGBC24TKB cell growth in a cell viability assay.

[61] = system: U-266; assay type: functional, cell-based
Description: SANGER: Inhibition of human U-266 cell growth in a cell viability assay.

[62] = system: VA-ES-BJ; assay type: functional, cell-based
Description: SANGER: Inhibition of human VA-ES-BJ cell growth in a cell viability assay.

[63] = system: COLO-320-HSR; assay type: functional, cell-based
Description: SANGER: Inhibition of human COLO-320-HSR cell growth in a cell viability assay.

COc1cc(Nc2c(C#N)cnc3cc(OCCCN4CCN(C)CC4)c(OC)cc23)c(Cl)cc1Cl [BOSUTINIB]
IC50 [1]: > 2000 nM | IC50 [2]: > 2000 nM | IC50 [3]: > 2000 nM | IC50 [4]: 1440 nM | IC50 [5]: > 2000 nM | IC50 [6]: > 2000 nM | IC50 [7]: 439 nM | IC50 [8]: 1210 nM | IC50 [9]: > 2000 nM | IC50 [10]: > 2000 nM | IC50 [11]: > 2000 nM | IC50 [12]: > 2000 nM | IC50 [13]: > 2000 nM | IC50 [14]: > 2000 nM | IC50 [15]: 488 nM | IC50 [16]: > 2000 nM | IC50 [17]: 1490 nM | IC50 [18]: > 2000 nM | IC50 [19]: 1130 nM | IC50 [20]: > 2000 nM | IC50 [21]: 537 nM | IC50 [22]: > 2000 nM | IC50 [23]: > 2000 nM | IC50 [24]: > 2000 nM | IC50 [25]: > 2000 nM | IC50 [26]: 512 nM | IC50 [27]: > 2000 nM | IC50 [28]: > 2000 nM | IC50 [29]: > 2000 nM | IC50 [30]: > 2000 nM | IC50 [31]: > 2000 nM | IC50 [32]: 1700 nM | IC50 [33]: > 2000 nM | IC50 [34]: > 2000 nM | IC50 [35]: > 2000 nM | IC50 [36]: > 2000 nM | IC50 [37]: > 2000 nM | IC50 [38]: > 2000 nM | IC50 [39]: > 2000 nM | IC50 [40]: > 2000 nM | IC50 [41]: 1990 nM | IC50 [42]: > 2000 nM | IC50 [43]: 1720 nM | IC50 [44]: > 2000 nM | IC50 [45]: > 2000 nM | IC50 [46]: 486 nM | IC50 [47]: > 2000 nM | IC50 [48]: > 2000 nM | IC50 [49]: > 2000 nM | IC50 [50]: > 2000 nM | IC50 [51]: 1310 nM | IC50 [52]: > 2000 nM | IC50 [53]: > 2000 nM | IC50 [54]: > 2000 nM | IC50 [55]: > 2000 nM | IC50 [56]: 1900 nM | IC50 [57]: > 2000 nM | IC50 [58]: 508 nM | IC50 [59]: > 2000 nM | IC50 [60]: > 2000 nM | IC50 [61]: > 2000 nM | IC50 [62]: > 2000 nM | IC50 [63]: > 2000 nM

C[C@]12O[C@H](C[C@]1(O)CO)n1c3ccccc3c3c4c(c5c6ccccc6n2c5c31)CNC4=O [LESTAURTINIB]
IC50 [1]: 1160 nM | IC50 [2]: > 2000 nM | IC50 [3]: > 2000 nM | IC50 [4]: 47.3 nM | IC50 [5]: 659 nM | IC50 [6]: > 2000 nM | IC50 [7]: 450 nM | IC50 [8]: 128 nM | IC50 [9]: 635 nM | IC50 [10]: 238 nM | IC50 [11]: 174 nM | IC50 [12]: 389 nM | IC50 [13]: 506 nM | IC50 [14]: 149 nM | IC50 [15]: 452 nM | IC50 [16]: 112 nM | IC50 [17]: 9.94 nM | IC50 [18]: 37.8 nM | IC50 [19]: 159 nM | IC50 [20]: 147 nM | IC50 [21]: 125 nM | IC50 [22]: > 2000 nM | IC50 [23]: > 2000 nM | IC50 [24]: 322 nM | IC50 [25]: 600 nM | IC50 [26]: 456 nM | IC50 [27]: > 2000 nM | IC50 [28]: 862 nM | IC50 [29]: 1120 nM | IC50 [30]: 89.8 nM | IC50 [31]: 70.2 nM | IC50 [32]: < 7.81 nM | IC50 [33]: 236 nM | IC50 [34]: 469 nM | IC50 [35]: 415 nM | IC50 [36]: 925 nM | IC50 [37]: 281 nM | IC50 [38]: 356 nM | IC50 [39]: > 2000 nM | IC50 [40]: > 2000 nM | IC50 [41]: > 2000 nM | IC50 [42]: 48.5 nM | IC50 [43]: 47.3 nM | IC50 [44]: 128 nM | IC50 [45]: 1190 nM | IC50 [46]: 61.9 nM | IC50 [47]: 917 nM | IC50 [48]: > 2000 nM | IC50 [49]: 42.5 nM | IC50 [50]: 152 nM | IC50 [51]: 82.7 nM | IC50 [52]: 387 nM | IC50 [53]: 77.7 nM | IC50 [54]: 172 nM | IC50 [55]: 1640 nM | IC50 [56]: 23 nM | IC50 [57]: 970 nM | IC50 [58]: 369 nM | IC50 [59]: 724 nM | IC50 [60]: > 2000 nM | IC50 [61]: 145 nM | IC50 [62]: 389 nM | IC50 [63]: > 2000 nM
